Laboratory results reported in patent publication EP2945607B1, “COSMETIC OR DERMATOLOGICAL EMULSION COMPRISING A MEROCYANINE AND AN EMULSIFYING SYSTEM CONTAINING AN ALKALI METAL SALT OF A PHOSPHORIC ACID ESTER OF A FATTY ALCOHOL” (L'Oréal, priority 2013, dated 2014).

Experiment: Color of the formulations: colorimetry of thin films on contrast map (spectro-colorimeter Minolta CM2600D), L*a*b* system
Assay type: physicochemical
Conditions: result in words; equivalent formulations (2 % merocyanine)
Procedure: Protocol for evaluating the color of the formulations
The color of the formulations was evaluated after preparation of thin films on contrast map. The formulations were deposited within a circle of 2.2 cm of diameter and planed to obtain thicknesses of reproducible deposit. The colorimetric measures were then made by means of a spectro-colorimeter Minolta CM2600D in two points of the film. This operation is twice reproduced, which leads to 4 experimental values by formulation.
The results are expressed in the system (L *, has *, b *) in which L* represents the luminance, a* represents the red-green axis (-a* = green, +a* = red) and b* represents the yellow-blue axis (-b* blue, +b* yellow). So, a* and b* express the shade of the compound.
The difference of color ΔE* was calculated from the variations ΔL*, Δa* et Δb* between the compound (2) and the compound MC11 with the following equation : ((ΔE*))^2 = ((ΔL*))^2 + ((Δa*))^2 + ((Δb*))^2 [formula] • ΔL* = L* formulation with compound MC11 - L* formulation with compound (2) • Δa* = a* formulation with compound MC11 - a* formulation with compound (2) • Δb* = b* formulation with compound MC11 - b* formulation with compound (2)
We consider that the difference of color between the two compounds is significant if ΔE* > 2.

color compared with compound MC11 of WO2008/090066: significantly less yellow
Compound: CCOCCOC(=O)/C(C#N)=C1\C=C(NCCCOC)CCC1 [Compound (2), 2-ethoxyethyl (2Z)-cyano{3-[(3-methoxypropyl)amino]cyclohex-2-en-1-ylidene}ethanoate]
